Data from patent US11857519B2, “Compounds and methods for the targeted degradation of enhancer of zeste homolog 2 polypeptide” (Arvinas Operations, Inc., priority 2016, dated 2024).

Target: T1, EZH2 (Homo sapiens, UniProt Q15910)
T1 construct: Protocol of the Cellular Assay of Target Protein Degradation (VCaP Cells, ELISA); endogenous in cells; host or cells: VCaP cells
Experiment: Cellular assay of target protein degradation (VCaP cells, ELISA)
Assay type: cell-based
Details: 4 hours, protein degradation range at indicated concentration (relative to DMSO control)
Method in brief: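 EZH2 level measured by sandwich ELISA (TMB, A450 minus A562 background) in lysates of VCaP cells. Cells had been cultured at least 3 days in 5% CSS RPMI before 4 h compound exposure in 0.1% DMSO.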

T1 sequence (Q15910 whole entry): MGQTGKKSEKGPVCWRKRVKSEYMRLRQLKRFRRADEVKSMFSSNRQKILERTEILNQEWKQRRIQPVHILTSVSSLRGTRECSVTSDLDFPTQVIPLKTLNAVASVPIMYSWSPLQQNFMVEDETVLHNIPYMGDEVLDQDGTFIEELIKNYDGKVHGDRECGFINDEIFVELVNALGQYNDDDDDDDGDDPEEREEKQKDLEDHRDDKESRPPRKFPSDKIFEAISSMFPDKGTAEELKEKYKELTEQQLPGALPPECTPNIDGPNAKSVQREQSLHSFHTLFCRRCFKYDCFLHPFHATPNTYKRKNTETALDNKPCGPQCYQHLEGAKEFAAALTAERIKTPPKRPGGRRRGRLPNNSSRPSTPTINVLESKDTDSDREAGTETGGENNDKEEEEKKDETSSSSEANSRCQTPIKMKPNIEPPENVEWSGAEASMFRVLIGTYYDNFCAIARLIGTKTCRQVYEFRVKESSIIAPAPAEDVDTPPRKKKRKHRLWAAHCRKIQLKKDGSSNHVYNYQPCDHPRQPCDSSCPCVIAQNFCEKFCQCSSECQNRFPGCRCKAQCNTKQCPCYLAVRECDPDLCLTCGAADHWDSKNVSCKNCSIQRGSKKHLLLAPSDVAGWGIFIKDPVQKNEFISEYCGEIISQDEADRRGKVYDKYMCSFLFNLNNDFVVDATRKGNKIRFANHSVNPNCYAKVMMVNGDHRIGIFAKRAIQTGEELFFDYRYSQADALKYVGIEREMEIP
T1 sequence (O75530 whole entry partner): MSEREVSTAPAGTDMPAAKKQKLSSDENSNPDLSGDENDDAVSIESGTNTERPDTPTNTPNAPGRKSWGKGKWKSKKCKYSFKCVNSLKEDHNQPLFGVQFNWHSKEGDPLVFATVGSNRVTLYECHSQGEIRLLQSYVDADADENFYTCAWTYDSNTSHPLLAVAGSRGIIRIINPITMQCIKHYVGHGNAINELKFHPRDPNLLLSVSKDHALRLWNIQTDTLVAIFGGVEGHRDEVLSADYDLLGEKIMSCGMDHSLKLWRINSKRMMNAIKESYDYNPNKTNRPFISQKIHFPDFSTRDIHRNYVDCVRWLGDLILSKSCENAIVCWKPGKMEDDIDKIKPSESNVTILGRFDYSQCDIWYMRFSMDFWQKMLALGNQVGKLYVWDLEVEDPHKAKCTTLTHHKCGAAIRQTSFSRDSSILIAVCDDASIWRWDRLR
T1 sequence (Q15022 whole entry partner): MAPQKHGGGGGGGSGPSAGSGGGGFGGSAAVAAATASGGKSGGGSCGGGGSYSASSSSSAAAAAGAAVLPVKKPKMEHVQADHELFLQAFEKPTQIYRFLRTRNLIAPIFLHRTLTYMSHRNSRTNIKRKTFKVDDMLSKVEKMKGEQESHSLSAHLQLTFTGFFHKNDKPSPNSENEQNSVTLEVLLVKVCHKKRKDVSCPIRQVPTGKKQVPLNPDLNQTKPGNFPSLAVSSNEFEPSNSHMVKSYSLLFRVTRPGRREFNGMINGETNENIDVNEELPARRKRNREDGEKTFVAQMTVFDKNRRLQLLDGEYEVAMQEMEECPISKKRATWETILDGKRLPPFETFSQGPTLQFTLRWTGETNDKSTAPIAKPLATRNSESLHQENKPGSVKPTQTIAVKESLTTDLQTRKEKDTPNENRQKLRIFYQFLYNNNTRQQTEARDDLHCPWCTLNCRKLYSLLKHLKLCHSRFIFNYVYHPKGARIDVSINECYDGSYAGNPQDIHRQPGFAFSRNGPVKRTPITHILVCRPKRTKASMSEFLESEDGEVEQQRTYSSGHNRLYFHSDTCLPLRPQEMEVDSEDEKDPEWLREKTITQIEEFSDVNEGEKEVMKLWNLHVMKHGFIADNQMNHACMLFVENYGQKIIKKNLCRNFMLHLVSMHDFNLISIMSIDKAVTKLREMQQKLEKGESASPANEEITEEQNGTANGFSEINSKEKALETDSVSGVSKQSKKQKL

percent target protein degradation class	SMILES
A (A = degradation more than 60%)	CCN(c1cc(-c2ccc(OCCOCCOCC(=O)N[C@H](C(=O)N3C[C@H](O)C[C@H]3C(=O)N[C@@H](C)c3ccc(-c4scnc4C)cc3)C(C)(C)C)cc2)cc(C(=O)NCc2c(C)cc(C)[nH]c2=O)c1C)C1CCOCC1 [Compound 43, (2S,4R)-1-[(2S)-2-[2-(2-{2-[4-(3-{[(4,6-dimethyl-2-oxo-1,2-dihydropyridin-3-yl)methyl]carbamoyl}-5-[ethyl(oxan-4-yl)amino]-4-methylphenyl)phenoxy]ethoxy}ethoxy)acetamido]-3,3-dimethylbutanoyl]-4-hydroxy-N-[(1S)-1-[4-(4-methyl-1,3-thiazol-5-yl)phenyl]ethyl]pyrrolidine-2-carboxamide]
B (B = degradation between 30% and 60%)	CCN(c1cc(-c2ccc(OCCOCC(=O)N[C@H](C(=O)N3C[C@H](O)C[C@H]3C(=O)NCc3ccc(-c4scnc4C)cc3)C(C)(C)C)cc2)cc(C(=O)NCc2c(C)cc(C)[nH]c2=O)c1C)C1CCOCC1 [Compound 32, (2S,4R)-1-[(2S)-2-(2-{2-[4-(3-{[(4,6-dimethyl-2-oxo-1,2-dihydropyridin-3-yl)methyl]carbamoyl}-5-[ethyl(oxan-4-yl)amino]-4-methylphenyl)phenoxy]ethoxy}acetamido)-3,3-dimethylbutanoyl]-4-hydroxy-N-{[4-(4-methyl-1,3-thiazol-5-yl)phenyl]methyl}pyrrolidine-2-carboxamide]
B (B = degradation between 30% and 60%)	CCN(c1cc(-c2ccc(OCCCN3CCN(c4ccc5c(c4)C(=O)N(C4CCC(=O)NC4=O)C5=O)CC3)cc2)cc(C(=O)NCc2c(C)cc(C)[nH]c2=O)c1C)C1CCOCC1 (stereo not shown) [Compound 61, N-[(4,6-dimethyl-2-oxo-1,2-dihydropyridin-3-yl)methyl]-5-[4-(3-{4-[2-(2,6-dioxopiperidin-3-yl)-1,3-dioxo-2,3-dihydro-1H-isoindol-5-yl]piperazin-1-yl}propoxy)phenyl]-3-[ethyl(oxan-4-yl)amino]-2-methylbenzamide]
B (B = degradation between 30% and 60%)	CCN(c1cc(-c2ccc(OCCCOc3ccc4c(c3)C(=O)N([C@@H](C(=O)N3C[C@H](O)C[C@H]3C(=O)N[C@@H](C)c3ccc(-c5scnc5C)cc3)C(C)C)C4)cc2)cc(C(=O)NCc2c(C)cc(C)[nH]c2=O)c1C)C1CCOCC1 [Compound 97, (2S,4R)-1-((R)-2-(6-(3-((3′-(((4,6-dimethyl-2-oxo-1,2-dihydropyridin-3-yl)methyl)carbamoyl)-5′-(ethyl(tetrahydro-2H-pyran-4-yl)amino)-4′-methyl-[1,1′-biphenyl]-4-yl)oxy)propoxy)-1-oxoisoindolin-2-yl)-3-methylbutanoyl)-4-hydroxy-N-((S)-1-(4-(4-methylthiazol-5-yl)phenyl)ethyl)pyrrolidine-2-carboxamide]
B (B = degradation between 30% and 60%)	CCN(c1cc(-c2ccc(OCCOCCOCCOCCNc3cccc4c3C(=O)N(C3CCC(=O)NC3=O)C4=O)cc2)cc(C(=O)NCc2c(C)cc(C)[nH]c2=O)c1C)C1CCOCC1 (stereo not shown) [Compound 17, N-[(4,6-dimethyl-2-oxo-1,2-dihydropyridin-3-yl)methyl]-5-[4-({1-[2-(2,6-dioxopiperidin-3-yl)-1,3-dioxo-2,3-dihydro-1H-isoindol-4-yl]-4,7,10-trioxa-1-azadodecan-12-yl}oxy)phenyl]-3-[ethyl(oxan-4-yl)amino]-2-methylbenzamide]
A (A = degradation more than 60%)	CCN(c1cc(-c2ccc(OCCCOCC(=O)N[C@H](C(=O)N3C[C@H](O)C[C@H]3C(=O)N[C@@H](C)c3ccc(-c4scnc4C)cc3)C(C)(C)C)cc2)cc(C(=O)NCc2c(C)cc(C)[nH]c2=O)c1C)C1CCOCC1 [Compound 95, (2S,4R)-1-((S)-2-(2-(3-((3′-(((4,6-dimethyl-2-oxo-1,2-dihydropyridin-3-yl)methyl)carbamoyl)-5′-(ethyl(tetrahydro-2H-pyran-4-yl)amino)-4′-methyl-[1,1′-biphenyl]-4-yl)oxy)propoxy)acetamido)-3,3-dimethylbutanoyl)-4-hydroxy-N-((S)-1-(4-(4-methylthiazol-5-yl)phenyl)ethyl)pyrrolidine-2-carboxamide]
B (B = degradation between 30% and 60%)	CCN(c1cc(-c2ccc(OCCOCCOCCNc3cccc4c3C(=O)N(C3CCC(=O)NC3=O)C4=O)cc2)cc(C(=O)NCc2c(C)cc(C)[nH]c2=O)c1C)C1CCOCC1 (stereo not shown) [Compound 33, N-[(4,6-dimethyl-2-oxo-1,2-dihydropyridin-3-yl)methyl]-5-(4-{2-[2-(2-{[2-(2,6-dioxopiperidin-3-yl)-1,3-dioxo-2,3-dihydro-1H-isoindol-4-yl]amino}ethoxy)ethoxy]ethoxy}phenyl)-3-[ethyl(oxan-4-yl)amino]-2-methylbenzamide]
B (B = degradation between 30% and 60%)	CCN(c1cc(-c2ccc(OCCOCCOCCOCCOCCNc3cccc4c3C(=O)N(C3CCC(=O)NC3=O)C4=O)cc2)cc(C(=O)NCc2c(C)cc(C)[nH]c2=O)c1C)C1CCOCC1 (stereo not shown) [Compound 18, N-[(4,6-dimethyl-2-oxo-1,2-dihydropyridin-3-yl)methyl]-5-[4-({1-[2-(2,6-dioxopiperidin-3-yl)-1,3-dioxo-2,3-dihydro-1H-isoindol-4-yl]-4,7,10,13-tetraoxa-1-azapentadecan-15-yl}oxy)phenyl]-3-[ethyl(oxan-4-yl)amino]-2-methylbenzamide]
A (A = degradation more than 60%)	CCN(c1cc(-c2ccc(OCCCCCOCC(=O)N[C@H](C(=O)N3C[C@H](O)C[C@H]3C(=O)N[C@@H](C)c3ccc(-c4scnc4C)cc3)C(C)(C)C)cc2)cc(C(=O)NCc2c(C)cc(C)[nH]c2=O)c1C)C1CCOCC1 [Compound 94, (2S,4R)-1-((S)-2-(2-((5-((3′-(((4,6-dimethyl-2-oxo-1,2-dihydropyridin-3-yl)methyl)carbamoyl)-5′-(ethyl(tetrahydro-2H-pyran-4-yl)amino)-4′-methyl-[1,1′-biphenyl]-4-yl)oxy)pentyl)oxy)acetamido)-3,3-dimethylbutanoyl)-4-hydroxy-N-((S)-1-(4-(4-methylthiazol-5-yl)phenyl)ethyl)pyrrolidine-2-carboxamide]
B (B = degradation between 30% and 60%)	CCN(c1cc(-c2ccc(OCCOCCOCCOCCOc3cc(-c4scnc4C)ccc3CNC(=O)[C@@H]3C[C@@H](O)CN3C(=O)[C@H](C(C)C)N3Cc4ccccc4C3=O)cc2)cc(C(=O)NCc2c(C)cc(C)[nH]c2=O)c1C)C1CCOCC1 [Compound 36, (2S,4R)-N-{[2-({1-[4-(3-{[(4,6-dimethyl-2-oxo-1,2-dihydropyridin-3-yl)methyl]carbamoyl}-5-[ethyl(oxan-4-yl)amino]-4-methylphenyl)phenyl]-1,4,7,10-tetraoxadodecan-12-yl}oxy)-4-(4-methyl-1,3-thiazol-5-yl)phenyl]methyl}-4-hydroxy-1-[(2S)-3-methyl-2-(1-oxo-2,3-dihydro-1H-isoindol-2-yl)butanoyl]pyrrolidine-2-carboxamide]
B (B = degradation between 30% and 60%)	CCN(c1cc(-c2ccc(OCCOCCOCCOCCOCCOCCOCC(=O)N[C@H](C(=O)N3C[C@H](O)C[C@H]3C(=O)NCc3ccc(-c4scnc4C)cc3)C(C)(C)C)cc2)cc(C(=O)NCc2c(C)cc(C)[nH]c2=O)c1C)C1CCOCC1 [Compound 16, (2S,4R)-1-[(2S)-2-{1-[4-(3-{[(4,6-dimethyl-2-oxo-1,2-dihydropyridin-3-yl)methyl]carbamoyl}-5-[ethyl(oxan-4-yl)amino]-4-methylphenyl)phenyl]-1,4,7,10,13,16,19-heptaoxahenicosan-21-amido}-3,3-dimethylbutanoyl]-4-hydroxy-N-{[4-(4-methyl-1,3-thiazol-5-yl)phenyl]methyl}pyrrolidine-2-carboxamide]

SMILES	percent target protein degradation class
CCN(c1cc(-c2ccc(COCCOc3ccc4c(c3)C(=O)N([C@H](C(=O)N3C[C@H](O)C[C@H]3C(=O)N[C@@H](C)c3ccc(-c5scnc5C)cc3)C(C)C)C4)cc2)cc(C(=O)NCc2c(C)cc(C)[nH]c2=O)c1C)C1CCOCC1 [Compound 99, (2S,4R)-1-((S)-2-(6-(2-((3′-((4,6-dimethyl-2-oxo-1,2-dihydropyridin-3-yl)methylcarbamoyl)-5′-(ethyl(tetrahydro-2H-pyran-4-yl)amino)-4′-methylbiphenyl-4-yl)methoxy)ethoxy)-1-oxoisoindolin-2-yl)-3-methylbutanoyl)-4-hydroxy-N—((S)-1-(4-(4-methylthiazol-5-yl)phenyl)ethyl)pyrrolidine-2-carboxamide]	A (A = degradation more than 60%)
Cc1cc(C)c(CNC(=O)c2cc(-c3ccc(CN4CCN(CCOCCCCCOCCCCCOCC(=O)N[C@H](C(=O)N5C[C@H](O)C[C@H]5C(=O)NCc5ccc(-c6scnc6C)cc5)C(C)(C)C)CC4)cc3)cc3c2ccn3C2CCCC2)c(=O)[nH]1 [Compound 6, 1-cyclopentyl-N-[(4,6-dimethyl-2-oxo-1,2-dihydropyridin-3-yl)methyl]-6-[4-[(4-{2-[(5-{[5-({[(2S)-1-[(2S,4R)-4-hydroxy-2-({[4-(4-methyl-1,3-thiazol-5-yl)phenyl]methyl}carbamoyl)pyrrolidin-1-yl]-3,3-dimethyl-1-oxobutan-2-yl]carbamoyl}methoxy)pentyl]oxy}pentyl)oxy]ethyl}piperazin-1-yl)methyl]phenyl}-1H-indole-4-carboxamide]	B (B = degradation between 30% and 60%)
